For orientation: IC50 means the concentration at which inhibition is half-maximal.

What all share (type): cell-based
Experiment [1] addresses AXL (phospho-AXL, Gas6-stimulated A-172 glioblastoma cells) (Homo sapiens (Human), UniProt P30530). Description: AXL autophosphorylation ELISA in A-172 cells (Example E). As to conditions: cellular activity, read-out: Axl IC50. The method in brief: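 Phospho-AXL was measured by ELISA in lysates of Gas6-stimulated A-172 cells, starved 24 h in serum-free medium and exposed 1 h to an 8-point compound dilution at 0.3% DMSO.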
For orientation: An ELISA detects its analyte on a solid surface through an enzyme-linked reagent.

Experiment [2] has as its target Met (phospho-Met, HGF-stimulated PC-3 prostate cancer cells) (Homo sapiens (Human), UniProt P08581). Description: Met autophosphorylation ELISA in PC-3 cells (Example F). As to conditions: cellular activity, read-out: c-Met IC50. The method in brief: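 Compounds were tested on HGF-stimulated PC-3 cells. After 24 h culture and 3 h serum starvation, cells got compound for 1 h and 100 ng/mL HGF for 10 min, and Met tyrosine phosphorylation was measured by ELISA.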

The target in experiment [3] is KDR (phospho-KDR, VEGF165-stimulated HUVEC cells) (Homo sapiens (Human), UniProt P35968). The experiment in a line: KDR autophosphorylation ELISA in HUVEC cells (Example G). The conditions noted are these: cellular activity. The method in brief:
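First, endothelial cells were cultured a day, then kept without serum for another day. Next came 1 h with serially diluted compound, a brief 5 min VEGF165 stimulus (100 ng/mL), rapid lysis, and ELISA detection of receptor phosphorylation relative to stimulated and non-stimulated controls.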

For experiment [4], the target named is Mer (phospho-Mer, MERTK-transfected 293A cells) (Homo sapiens (Human), UniProt Q12866). The experiment in a line: Mer autophosphorylation ELISA in transient transfected 293A cells (Example H). The conditions noted are these: cellular activity. The method in brief:
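IC50 from phospho-Mer ELISA of MERTK-transfected 293A cell lysates after 1 h treatment with serially diluted compound in serum-free medium.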

[5] abbreviates: AXL autophosphorylation ELISA in A-172 cells.
Setting [6] is: Met autophosphorylation ELISA in PC-3 cells.
Setting [7] is: KDR autophosphorylation ELISA in HUVEC cells.
[8] abbreviates: Mer autophosphorylation ELISA in transient transfected 293A cells.

Like-named read-outs stand apart in the source and are kept apart here.

Chain of Mer (phospho-Mer, MERTK-transfected 293A cells) (Q12866 21-999): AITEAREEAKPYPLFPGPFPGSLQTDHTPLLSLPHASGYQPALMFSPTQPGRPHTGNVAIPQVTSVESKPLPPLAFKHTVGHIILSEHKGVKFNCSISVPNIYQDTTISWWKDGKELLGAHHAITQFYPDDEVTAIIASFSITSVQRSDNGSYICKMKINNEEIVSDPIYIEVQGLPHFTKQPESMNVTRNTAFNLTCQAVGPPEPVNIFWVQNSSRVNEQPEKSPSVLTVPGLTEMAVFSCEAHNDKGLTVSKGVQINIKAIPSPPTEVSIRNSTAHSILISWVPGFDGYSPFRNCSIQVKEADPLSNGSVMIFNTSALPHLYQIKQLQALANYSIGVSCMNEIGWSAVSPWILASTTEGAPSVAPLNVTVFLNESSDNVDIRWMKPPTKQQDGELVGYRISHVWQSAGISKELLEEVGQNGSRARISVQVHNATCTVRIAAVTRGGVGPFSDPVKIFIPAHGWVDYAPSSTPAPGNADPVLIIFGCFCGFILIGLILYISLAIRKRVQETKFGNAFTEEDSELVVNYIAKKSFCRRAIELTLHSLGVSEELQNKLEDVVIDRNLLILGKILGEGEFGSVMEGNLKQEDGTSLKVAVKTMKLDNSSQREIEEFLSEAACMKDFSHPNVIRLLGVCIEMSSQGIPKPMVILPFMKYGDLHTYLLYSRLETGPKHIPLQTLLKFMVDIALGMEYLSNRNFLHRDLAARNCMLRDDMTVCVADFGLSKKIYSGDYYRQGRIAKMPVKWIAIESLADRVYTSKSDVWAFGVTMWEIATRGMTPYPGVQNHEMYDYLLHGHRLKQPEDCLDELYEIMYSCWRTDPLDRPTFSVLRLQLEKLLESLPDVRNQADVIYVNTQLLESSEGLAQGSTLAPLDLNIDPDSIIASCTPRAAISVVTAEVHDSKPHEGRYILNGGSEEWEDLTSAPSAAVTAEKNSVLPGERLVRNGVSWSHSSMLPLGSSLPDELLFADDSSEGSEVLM
Chain of Met (phospho-Met, HGF-stimulated PC-3 prostate cancer cells) (P08581 25-1390): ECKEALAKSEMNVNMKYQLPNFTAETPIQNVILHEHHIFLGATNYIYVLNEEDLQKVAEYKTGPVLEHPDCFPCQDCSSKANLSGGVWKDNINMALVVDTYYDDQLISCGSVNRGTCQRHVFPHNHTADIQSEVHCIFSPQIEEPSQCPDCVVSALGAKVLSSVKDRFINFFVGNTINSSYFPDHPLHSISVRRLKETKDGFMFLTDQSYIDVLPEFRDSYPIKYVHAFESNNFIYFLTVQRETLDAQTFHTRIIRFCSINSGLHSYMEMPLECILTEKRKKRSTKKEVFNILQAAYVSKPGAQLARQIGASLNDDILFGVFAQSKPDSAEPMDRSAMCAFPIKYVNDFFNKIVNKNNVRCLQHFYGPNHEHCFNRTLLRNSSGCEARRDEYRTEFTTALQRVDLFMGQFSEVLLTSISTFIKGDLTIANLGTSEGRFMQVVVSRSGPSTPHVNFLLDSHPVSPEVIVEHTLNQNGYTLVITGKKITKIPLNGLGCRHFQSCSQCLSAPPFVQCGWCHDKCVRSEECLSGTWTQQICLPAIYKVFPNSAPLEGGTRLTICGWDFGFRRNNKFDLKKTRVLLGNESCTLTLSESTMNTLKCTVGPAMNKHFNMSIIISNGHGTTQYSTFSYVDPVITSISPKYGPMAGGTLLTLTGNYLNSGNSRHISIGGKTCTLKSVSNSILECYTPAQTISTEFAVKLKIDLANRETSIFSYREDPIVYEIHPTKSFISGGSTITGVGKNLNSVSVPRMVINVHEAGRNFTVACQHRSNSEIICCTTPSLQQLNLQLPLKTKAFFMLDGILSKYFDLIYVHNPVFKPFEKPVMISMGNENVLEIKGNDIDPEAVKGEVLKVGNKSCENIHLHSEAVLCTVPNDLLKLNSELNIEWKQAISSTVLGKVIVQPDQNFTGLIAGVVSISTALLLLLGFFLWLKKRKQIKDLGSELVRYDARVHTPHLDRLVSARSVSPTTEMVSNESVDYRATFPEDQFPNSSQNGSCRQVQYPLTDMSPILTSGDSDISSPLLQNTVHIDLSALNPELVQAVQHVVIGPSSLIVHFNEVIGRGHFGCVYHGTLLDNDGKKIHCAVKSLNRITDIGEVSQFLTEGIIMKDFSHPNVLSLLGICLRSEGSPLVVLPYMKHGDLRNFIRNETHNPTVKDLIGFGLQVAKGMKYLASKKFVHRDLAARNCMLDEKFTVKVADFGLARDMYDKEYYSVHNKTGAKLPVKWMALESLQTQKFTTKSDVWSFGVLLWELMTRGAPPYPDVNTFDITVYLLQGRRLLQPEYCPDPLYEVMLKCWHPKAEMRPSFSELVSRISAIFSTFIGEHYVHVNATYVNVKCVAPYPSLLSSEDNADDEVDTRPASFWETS
Chain of KDR (phospho-KDR, VEGF165-stimulated HUVEC cells) (P35968 20-1356): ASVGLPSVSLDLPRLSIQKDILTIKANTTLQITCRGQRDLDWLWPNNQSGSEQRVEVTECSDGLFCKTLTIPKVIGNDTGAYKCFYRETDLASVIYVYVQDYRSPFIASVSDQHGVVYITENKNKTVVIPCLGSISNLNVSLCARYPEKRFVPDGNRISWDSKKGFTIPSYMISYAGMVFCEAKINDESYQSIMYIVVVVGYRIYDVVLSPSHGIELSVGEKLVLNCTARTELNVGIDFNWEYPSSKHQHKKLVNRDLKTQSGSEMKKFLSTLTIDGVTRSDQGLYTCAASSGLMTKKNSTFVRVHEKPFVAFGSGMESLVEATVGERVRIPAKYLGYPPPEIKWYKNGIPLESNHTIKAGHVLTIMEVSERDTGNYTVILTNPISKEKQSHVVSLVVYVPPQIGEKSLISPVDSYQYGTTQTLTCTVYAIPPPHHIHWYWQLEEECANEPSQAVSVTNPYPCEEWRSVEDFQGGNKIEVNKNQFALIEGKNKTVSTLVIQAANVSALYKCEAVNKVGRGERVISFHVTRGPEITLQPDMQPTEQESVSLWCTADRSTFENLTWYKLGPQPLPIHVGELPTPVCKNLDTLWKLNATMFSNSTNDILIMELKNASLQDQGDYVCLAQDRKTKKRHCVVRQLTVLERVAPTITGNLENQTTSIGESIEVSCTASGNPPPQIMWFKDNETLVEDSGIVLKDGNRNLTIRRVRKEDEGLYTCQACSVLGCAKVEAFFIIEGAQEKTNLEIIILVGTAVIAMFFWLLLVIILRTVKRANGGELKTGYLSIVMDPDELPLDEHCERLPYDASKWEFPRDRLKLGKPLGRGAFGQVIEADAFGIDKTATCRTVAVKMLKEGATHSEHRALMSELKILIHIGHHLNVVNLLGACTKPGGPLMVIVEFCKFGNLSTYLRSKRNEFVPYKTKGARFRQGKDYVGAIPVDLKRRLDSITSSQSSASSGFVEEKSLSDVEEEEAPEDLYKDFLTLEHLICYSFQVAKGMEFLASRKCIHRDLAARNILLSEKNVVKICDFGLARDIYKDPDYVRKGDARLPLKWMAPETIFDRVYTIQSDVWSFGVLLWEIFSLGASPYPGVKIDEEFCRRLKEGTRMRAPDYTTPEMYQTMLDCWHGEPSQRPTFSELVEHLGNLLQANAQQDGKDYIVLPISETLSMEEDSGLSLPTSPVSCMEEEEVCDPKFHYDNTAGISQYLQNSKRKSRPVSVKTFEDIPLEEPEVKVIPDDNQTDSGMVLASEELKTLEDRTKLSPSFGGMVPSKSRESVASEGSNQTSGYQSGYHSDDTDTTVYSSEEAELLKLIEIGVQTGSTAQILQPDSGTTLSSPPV
Chain of AXL (phospho-AXL, Gas6-stimulated A-172 glioblastoma cells) (P30530 26-894): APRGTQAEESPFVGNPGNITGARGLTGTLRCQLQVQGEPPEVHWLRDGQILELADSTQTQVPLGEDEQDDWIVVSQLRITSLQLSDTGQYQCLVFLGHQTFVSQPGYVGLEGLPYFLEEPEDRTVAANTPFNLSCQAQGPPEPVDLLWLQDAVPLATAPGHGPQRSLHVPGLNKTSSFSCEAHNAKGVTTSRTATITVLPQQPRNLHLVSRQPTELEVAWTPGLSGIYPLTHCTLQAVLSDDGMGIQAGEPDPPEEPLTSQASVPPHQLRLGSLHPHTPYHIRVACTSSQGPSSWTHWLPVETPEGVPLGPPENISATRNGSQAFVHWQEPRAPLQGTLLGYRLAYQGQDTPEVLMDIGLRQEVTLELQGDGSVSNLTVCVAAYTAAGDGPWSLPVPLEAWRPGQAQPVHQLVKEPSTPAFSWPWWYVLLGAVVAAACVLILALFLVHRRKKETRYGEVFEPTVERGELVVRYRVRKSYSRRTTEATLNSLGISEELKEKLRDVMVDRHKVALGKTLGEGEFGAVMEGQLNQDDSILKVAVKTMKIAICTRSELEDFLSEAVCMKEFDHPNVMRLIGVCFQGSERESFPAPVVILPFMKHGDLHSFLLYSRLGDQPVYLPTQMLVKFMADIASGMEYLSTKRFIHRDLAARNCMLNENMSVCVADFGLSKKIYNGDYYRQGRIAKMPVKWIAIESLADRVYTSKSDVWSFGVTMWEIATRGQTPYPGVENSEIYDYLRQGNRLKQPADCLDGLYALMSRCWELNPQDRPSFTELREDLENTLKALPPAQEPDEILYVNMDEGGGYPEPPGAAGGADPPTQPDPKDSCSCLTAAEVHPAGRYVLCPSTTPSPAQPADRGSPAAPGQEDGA

With `COc1cc2nccc(Oc3ccc(NC(=O)c4n[nH]c(C)c(-c5ccc(F)cc5)c4=O)cc3)c2nc1OC` [Compound 253, N-[4-[(6,7-Dimethoxy-1,5-naphthyridin-4-yl)oxy]phenyl]-5-(4-fluorophenyl)-6-methyl-4-oxo-1H-pyridazine-3-carboxamide], the IC50 in experiment [1] (setting [5]), in experiment [2] (setting [6]), in experiment [3] (setting [7]) and in experiment [4] (setting [8]) was under 100 nM each time.
On to `COc1cc2nccc(Oc3ccc(NC(=O)c4c(CO)nc(C)c(-c5ccc(F)cc5)c4O)cc3F)c2nc1OC` [Compound 652, N-[4-[(6,7-dimethoxy-1,5-naphthyridin-4-yl)oxy]-3-fluorophenyl]-5-(4-fluorophenyl)-4-hydroxy-2-(hydroxymethyl)-6-methylpyridine-3-carboxamide], for which the IC50 in experiment [1] (setting [5]), in experiment [2] (setting [6]), in experiment [3] (setting [7]) and in experiment [4] (setting [8]) was under 100 nM throughout.
Consider `COCCOc1cc2nccc(Oc3ccc(NC(=O)c4c(C)nc(C)c(-c5ccc(F)cc5C)c4O)cc3F)c2nc1OC` [Compound 487, N-[3-fluoro-4-[[6-methoxy-7-(2-methoxyethoxy)-1,5-naphthyridin-4-yl]oxy]phenyl]-5-(4-fluoro-2-methylphenyl)-4-hydroxy-2,6-dimethylpyridine-3-carboxamide], for which the IC50 in experiment [1] (setting [5]), in experiment [2] (setting [6]), in experiment [3] (setting [7]) and in experiment [4] (setting [8]) was under 100 nM in each case.
For `COc1cc2nccc(Oc3ccc(NC(=O)c4n[nH]c(C)cc4=O)cc3F)c2nc1OC` [Compound 536, N-[4-[(6,7-dimethoxy-1,5-naphthyridin-4-yl)oxy]-3-fluorophenyl]-6-methyl-4-oxo-1H-pyridazine-3-carboxamide], the IC50 in experiment [1] (setting [5]), in experiment [2] (setting [6]), in experiment [3] (setting [7]) and in experiment [4] (setting [8]) was over 300 nM in each case.
Take `C=Cc1c(C)c(C(=O)Nc2ccc(Oc3ccnc4cc(OC)cnc34)c(F)c2)c(=O)n(-c2ccc(F)cc2)c1C` [Compound 329, 5-ethenyl-N-[3-fluoro-4-[(7-methoxy-1,5-naphthyridin-4-yl)oxy]phenyl]-1-(4-fluorophenyl)-4,6-dimethyl-2-oxopyridine-3-carboxamide]: the IC50 in experiment [1] (setting [5]) is under 100 nM; in experiment [2] (setting [6]) it was under 100 nM; in experiment [3] (setting [7]) it was 100 to 300 nM; in experiment [4] (setting [8]), under 100 nM.
In the case of `COc1cc2nccc(Oc3ccc(NC(=O)c4c(C)ccn(-c5ccc(F)cc5C)c4=O)cc3F)c2nc1OC` [Compound 311, N-[4-[(6,7-Dimethoxy-1,5-naphthyridin-4-yl)oxy]-3-fluorophenyl]-1-(4-fluoro-2-methylphenyl)-4-methyl-2-oxopyridine-3-carboxamide], the IC50 in experiment [1] (setting [5]), in experiment [2] (setting [6]), in experiment [3] (setting [7]) and in experiment [4] (setting [8]) was under 100 nM in each case.
For the molecule `COc1cc(F)ccc1-c1cn(CC(F)F)c(C)c(C(=O)Nc2ccc(Oc3ccnc4cc(OC)c(OC)nc34)c(F)c2)c1=O` [Compound 810, 1-(2,2-difluoroethyl)-N-[4-[(6,7-dimethoxy-1,5-naphthyridin-4-yl)oxy]-3-fluorophenyl]-5-(4-fluoro-2-methoxyphenyl)-2-methyl-4-oxopyridine-3-carboxamide], the IC50 in experiment [1] (A-172 cells), in experiment [2] (PC-3 cells), in experiment [3] (HUVEC cells) and in experiment [4] (transfected 293A cells) was under 100 nM throughout.
As to `COc1cc2nccc(Oc3ccc(NC(=O)c4c(C)c(F)cn(-c5ccc(F)cc5)c4=O)cc3F)c2nc1OC` [Compound 664, N-[4-[(6,7-dimethoxy-1,5-naphthyridin-4-yl)oxy]-3-fluorophenyl]-5-fluoro-1-(4-fluorophenyl)-4-methyl-2-oxopyridine-3-carboxamide], the IC50 in experiment [1] (setting [5]), in experiment [2] (setting [6]), in experiment [3] (setting [7]) and in experiment [4] (setting [8]) was under 100 nM each time.
As for `COc1cc2nccc(Oc3ccc(NC(=O)c4cn5c(c(-c6ccc(F)cc6)c4=O)COCC5)cc3)c2nc1OC` [Compound 660, N-[4-[(6,7-dimethoxy-1,5-naphthyridin-4-yl)oxy]phenyl]-9-(4-fluorophenyl)-8-oxo-3,4-dihydro-1H-pyrido[2,1-c][1,4]oxazine-7-carboxamide], the IC50 was under 100 nM in experiment [1] (setting [5]), under 100 nM in experiment [2] (setting [6]), 100 to 300 nM in experiment [3] (setting [7]) and under 100 nM in experiment [4] (setting [8]).
For the molecule `COc1cc2nccc(Oc3cc(F)c(NC(=O)c4c(C)nc(C)c(-c5ccc(F)cc5C)c4O)cc3F)c2nc1Cl` [Compound 737, N-[4-[(6-chloro-7-methoxy-1,5-naphthyridin-4-yl)oxy]-2,5-difluorophenyl]-5-(4-fluoro-2-methylphenyl)-4-hydroxy-2,6-dimethylpyridine-3-carboxamide], the IC50 in experiment [1] (setting [5]), in experiment [2] (setting [6]), in experiment [3] (setting [7]) and in experiment [4] (setting [8]) was under 100 nM throughout.
`C=C(C)c1cnc2c(Oc3ccc(NC(=O)c4nn(C)c(C)c(-c5ccc(F)cc5)c4=O)cc3F)ccnc2c1` [Compound 477, 5-(4-fluorophenyl)-N-[3-fluoro-4-[(7-prop-1-en-2-yl-1,5-naphthyridin-4-yl)oxy]phenyl]-1,6-dimethyl-4-oxopyridazine-3-carboxamide]: the IC50 was under 100 nM in experiment [1] (setting [5]), under 100 nM in experiment [2] (setting [6]), over 300 nM in experiment [3] (setting [7]) and under 100 nM in experiment [4] (setting [8]).
In the case of `COc1cnc2c(Oc3ccc(NC(=O)c4cnc(C)c(-c5ccc(F)c(C)c5)c4O)cc3F)ccnc2c1` [Compound 701, N-[3-fluoro-4-[(7-methoxy-1,5-naphthyridin-4-yl)oxy]phenyl]-5-(4-fluoro-3-methylphenyl)-4-hydroxy-6-methylpyridine-3-carboxamide], the IC50 in experiment [1] (setting [5]), in experiment [2] (setting [6]), in experiment [3] (setting [7]) and in experiment [4] (setting [8]) was under 100 nM in each case.
On to `CCOc1nc2c(Oc3ccc(NC(=O)c4c(C)ncc(-c5ccc(F)cc5)c4O)cc3)ccnc2cc1OC` [Compound 671, N-[4-[(6-ethoxy-7-methoxy-1,5-naphthyridin-4-yl)oxy]phenyl]-5-(4-fluorophenyl)-4-hydroxy-2-methylpyridine-3-carboxamide], for which the IC50 in experiment [1] (setting [5]), in experiment [2] (setting [6]), in experiment [3] (setting [7]) and in experiment [4] (setting [8]) was under 100 nM throughout.
Consider `COc1cnc2c(Oc3ccc(NC(=O)c4c(C)n(C)c(C)c(-c5ccc(F)cc5C)c4=O)cc3F)ccnc2c1` [Compound 771, N-[3-fluoro-4-[(7-methoxy-1,5-naphthyridin-4-yl)oxy]phenyl]-5-(4-fluoro-2-methylphenyl)-1,2,6-trimethyl-4-oxopyridine-3-carboxamide], for which the IC50 is under 100 nM in experiment [1] (setting [5]), under 100 nM in experiment [2] (setting [6]), over 300 nM in experiment [3] (setting [7]) and under 100 nM in experiment [4] (setting [8]).
Turning to `COCCOc1cc2c(Oc3ccc(NC(=O)c4cn(C)c(C)c(-c5ccc(F)cc5)c4=O)cc3F)ccnc2nc1OC` [Compound 760, N-[3-fluoro-4-[[7-methoxy-6-(2-methoxyethoxy)-1,8-naphthyridin-4-yl]oxy]phenyl]-5-(4-fluorophenyl)-1,6-dimethyl-4-oxopyridine-3-carboxamide], the IC50 in experiment [1] (setting [5]) is under 100 nM; in experiment [2] (setting [6]), under 100 nM; in experiment [3] (setting [7]) it was over 300 nM; in experiment [4] (setting [8]) it was under 100 nM.
For `COCCOc1nc2c(Oc3ccc(NC(=O)c4ccc(C)n(-c5ccc(F)cc5)c4=O)cc3F)ncnc2cc1OC` [Compound 650, N-[3-fluoro-4-[7-methoxy-6-(2-methoxyethoxy)pyrido[3,2-d]pyrimidin-4-yl]oxyphenyl]-1-(4-fluorophenyl)-6-methyl-2-oxopyridine-3-carboxamide], the IC50 in experiment [1] (setting [5]), in experiment [2] (setting [6]), in experiment [3] (setting [7]) and in experiment [4] (setting [8]) was under 100 nM in each case.
As to `COc1ccc2nccc(Oc3ccc(NC(=O)c4nnc(C)c(-c5ccc(F)cc5)c4OC)cc3F)c2n1` [Compound 538, N-[3-fluoro-4-[(6-methoxy-1,5-naphthyridin-4-yl)oxy]phenyl]-5-(4-fluorophenyl)-4-methoxy-6-methylpyridazine-3-carboxamide], the IC50 in experiment [1] (setting [5]), in experiment [2] (setting [6]), in experiment [3] (setting [7]) and in experiment [4] (setting [8]) was under 100 nM in each case.

These data come from patent US12371428B2 (Exelixis, Inc., priority 2019, dated 2025).
